Where “and” joins values, the source holds several entries; their conditions need not be identical. Equal values may be shown once. Toxic doses and inconclusive results are not listed. Rule as the data show it: active = T/C of 150% or more; inactive = T/C below 125%.
Test system: L1210 leukemia ip in BDF1 mice, survival T/C
Assay: NCI In Vivo Anticancer Drug Screen. Data for tumor model L1210 Leukemia (intraperitoneal) in B6D2F1 (BDF1) mice
Conditions: endpoint: mean survival time, higher = longer survival
Summary of the method: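 Transplantable tumor model; survival measured in treated vs vehicle control mice. Value = treated/control.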

[1] = dose: 100.0 mg/kg/injection, schedule: Q01DX009 (ip), vehicle: Klucel (hydroxypropylcellulose) (HPC)
[2] = dose: 100.0 mg/kg/injection, schedule: Q01DX009 (ip), vehicle: saline with Tween-80
[3] = dose: 200.0 mg/kg/injection, schedule: Q01DX009 (ip), vehicle: Klucel (hydroxypropylcellulose) (HPC)
[4] = dose: 200.0 mg/kg/injection, schedule: Q01DX009 (ip), vehicle: saline with Tween-80
[5] = dose: 200.0 mg/kg/injection, schedule: Q04DX002 (ip), vehicle: Klucel (hydroxypropylcellulose) (HPC)
[6] = dose: 400.0 mg/kg/injection, schedule: Q01DX009 (ip), vehicle: Klucel (hydroxypropylcellulose) (HPC)
[7] = dose: 400.0 mg/kg/injection, schedule: Q04DX002 (ip), vehicle: Klucel (hydroxypropylcellulose) (HPC)
[8] = dose: 100.0 mg/kg/injection, schedule: Q01DX001 (ip), vehicle: carboxymethylcellulose (CMC)
[9] = dose: 200.0 mg/kg/injection, schedule: Q01DX001 (ip), vehicle: carboxymethylcellulose (CMC)
[10] = dose: 400.0 mg/kg/injection, schedule: Q01DX001 (ip), vehicle: carboxymethylcellulose (CMC)
[11] = dose: 100.0 mg/kg/injection, schedule: Q04DX003 (ip), vehicle: saline with Tween-80
[12] = dose: 100.0 mg/kg/injection, schedule: Q01DX001 (ip), vehicle: saline
[13] = dose: 200.0 mg/kg/injection, schedule: Q04DX003 (ip), vehicle: saline with Tween-80
[14] = dose: 400.0 mg/kg/injection, schedule: Q04DX003 (ip), vehicle: saline with Tween-80
[15] = dose: 200.0 mg/kg/injection, schedule: Q01DX001 (ip), vehicle: saline
[16] = dose: 400.0 mg/kg/injection, schedule: Q01DX001 (ip), vehicle: saline

Measured: T/C

Nc1nc(N)nc(-c2ccccc2)n1
inactive: dose: 50.0 mg/kg/injection, schedule: Q01DX009 (ip), vehicle: saline with Tween-80 94 % of control | [1] 111 % of control | [2] 94 % of control | dose: 100.0 mg/kg/injection, schedule: Q04DX002 (ip), vehicle: Klucel (hydroxypropylcellulose) (HPC) 114 % of control | [3] 111 % of control | [4] 97 % of control | [5] 107 % of control | [6] 93 % of control | [7] 88 % of control

C(=Nc1cnc2ccccc2c1)c1ccnc2ccccc12
inactive: dose: 50.0 mg/kg/injection, schedule: Q01DX001 (ip), vehicle: carboxymethylcellulose (CMC) 95 % of control | [8] 104 % of control | [9] 107 % of control | [10] 95 % of control

CCCCCCCCCCC(C1CCCC2CCCCC21)C1CCCC2CCCCC21 (stereo unspecified)
inactive: [8] 100 % of control | [9] 102 % of control | [10] 94 % of control

CC1(C)N=C(N)N=C(N)N1c1ccc(OCCNS(=O)(=O)c2ccc(S(=O)(=O)F)cc2)c(Cl)c1
inactive: [11] 105 % of control

CCN(CC)P(=O)(N1CC1(C)C)N1CC1(C)C (stereo unspecified)
inactive: dose: 88.0 mg/kg/injection, schedule: Q01DX001 (ip), vehicle: carboxymethylcellulose (CMC) 114 % of control | dose: 88.0 mg/kg/injection, schedule: Q01DX001 (ip), vehicle: saline 102 % of control | [12] 118 % of control | dose: 133.0 mg/kg/injection, schedule: Q01DX001 (ip), vehicle: carboxymethylcellulose (CMC) 118 % of control | dose: 133.0 mg/kg/injection, schedule: Q01DX001 (ip), vehicle: saline 107 % of control | [9] 114 % of control | dose: 300.0 mg/kg/injection, schedule: Q01DX001 (ip), vehicle: saline 115 % of control

CCCCCCCCCCCSCCCCCCCCCCC
inactive: [11] 113 % of control | [13] 94 % of control | [14] 91 % of control

S=C1SCN(CCc2ccccc2)CN1CCc1ccccc1
inactive: dose: 100.0 mg/kg/injection, schedule: Q04DX002 (ip), vehicle: gum acacia 92 % of control | dose: 200.0 mg/kg/injection, schedule: Q04DX002 (ip), vehicle: gum acacia 98 % of control | dose: 400.0 mg/kg/injection, schedule: Q04DX002 (ip), vehicle: gum acacia 92 % of control

COC(=O)/C=C/C(=O)NC(N)=O
inactive: dose: 6.25 mg/kg/injection, schedule: Q01DX009 (ip), vehicle: saline 93 % of control | dose: 12.5 mg/kg/injection, schedule: Q01DX009 (ip), vehicle: saline 98 % of control | dose: 25.0 mg/kg/injection, schedule: Q01DX009 (ip), vehicle: saline 101 % of control

CC1C(O)CN1C(C)(C)C (stereo unspecified)
inactive: [12] 105 % of control | [15] 106 % of control | [16] 108 % of control

CCCN1C(=O)CC(=O)NC1=O
inactive: [12] 102 % of control | [15] 100 % of control | [16] 100 % of control

Cc1cccc(NCC(=O)NN)c1C
inactive: dose: 50.0 mg/kg/injection, schedule: Q01DX009 (ip), vehicle: carboxymethylcellulose (CMC) 102 % of control and 104 % of control | dose: 50.0 mg/kg/injection, schedule: Q04DX002 (ip), vehicle: carboxymethylcellulose (CMC) 96 % of control and 101 % of control | dose: 50.0 mg/kg/injection, schedule: Q04DX003 (ip), vehicle: carboxymethylcellulose (CMC) 102 % of control | dose: 100.0 mg/kg/injection, schedule: Q01DX009 (ip), vehicle: carboxymethylcellulose (CMC) 104 % of control and 106 % of control | dose: 100.0 mg/kg/injection, schedule: Q04DX002 (ip), vehicle: carboxymethylcellulose (CMC) 101 % of control and 103 % of control | dose: 100.0 mg/kg/injection, schedule: Q04DX003 (ip), vehicle: carboxymethylcellulose (CMC) 102 % of control | dose: 200.0 mg/kg/injection, schedule: Q01DX009 (ip), vehicle: carboxymethylcellulose (CMC) 97 % of control | [5] 92 % of control | dose: 200.0 mg/kg/injection, schedule: Q04DX002 (ip), vehicle: carboxymethylcellulose (CMC) 104 % of control and 107 % of control | dose: 200.0 mg/kg/injection, schedule: Q04DX003 (ip), vehicle: carboxymethylcellulose (CMC) 90 % of control | [7] 113 % of control

C=C(C)COc1c(C)cc(C)cc1C=Nc1ccccc1
inactive: [11] 109 % of control | [13] 106 % of control | [14] 105 % of control

CC(C#N)Oc1cccc2ccccc12 (stereo unspecified)
inactive: dose: 100.0 mg/kg/injection, schedule: Q01DX009 (ip), vehicle: DMSO 87 % of control | dose: 100.0 mg/kg/injection, schedule: Q04DX003 (ip), vehicle: DMSO 92 % of control | dose: 200.0 mg/kg/injection, schedule: Q01DX009 (ip), vehicle: DMSO 87 % of control | dose: 200.0 mg/kg/injection, schedule: Q04DX003 (ip), vehicle: DMSO 87 % of control | dose: 400.0 mg/kg/injection, schedule: Q04DX003 (ip), vehicle: DMSO 103 % of control

O=C(Nc1cccc(S(=O)(=O)F)c1)Oc1ccc([N+](=O)[O-])cc1
inactive: dose: 100.0 mg/kg/injection, schedule: Q01DX001 (ip), vehicle: saline with Tween-80 100 % of control | [2] 95 % of control and 100 % of control | dose: 100.0 mg/kg/injection, schedule: Q04DX002 (ip), vehicle: saline with Tween-80 91 % of control | [11] 95 % of control | dose: 200.0 mg/kg/injection, schedule: Q01DX001 (ip), vehicle: saline with Tween-80 100 % of control | [4] 98 % of control and 102 % of control | dose: 200.0 mg/kg/injection, schedule: Q04DX002 (ip), vehicle: saline with Tween-80 91 % of control | [13] 100 % of control | dose: 400.0 mg/kg/injection, schedule: Q01DX001 (ip), vehicle: saline with Tween-80 98 % of control | dose: 400.0 mg/kg/injection, schedule: Q01DX009 (ip), vehicle: saline with Tween-80 88 % of control | dose: 400.0 mg/kg/injection, schedule: Q04DX002 (ip), vehicle: saline with Tween-80 90 % of control

C=CC(C)C1CCC2(C)C3=C(C(=O)CC12C)C1(C)CCC(OC(C)=O)C(C)(C)C1=C(OC(C)=O)C3=O (stereo unspecified)
inactive: [11] 91 % of control | [13] 91 % of control | [14] 87 % of control

OCCC/C=C/CCI
inactive: [1] 93 % of control | dose: 100.0 mg/kg/injection, schedule: Q04DX003 (ip), vehicle: Klucel (hydroxypropylcellulose) (HPC) 112 % of control | [3] 90 % of control | dose: 200.0 mg/kg/injection, schedule: Q04DX003 (ip), vehicle: Klucel (hydroxypropylcellulose) (HPC) 109 % of control | [6] 98 % of control | dose: 400.0 mg/kg/injection, schedule: Q04DX003 (ip), vehicle: Klucel (hydroxypropylcellulose) (HPC) 91 % of control

COC1=CC(=O)C=CC1=O
inactive: dose: 1.5 mg/kg/injection, schedule: Q01DX009 (ip), vehicle: saline 90 % of control | dose: 3.0 mg/kg/injection, schedule: Q01DX009 (ip), vehicle: saline 88 % of control | dose: 6.0 mg/kg/injection, schedule: Q01DX009 (ip), vehicle: saline 90 % of control

From PubChem BioAssay AID248 (DTP/NCI, 2004)
